Laboratory results: paper PMC5584945, “Evaluation of robenidine analog NCL195 as a novel broad-spectrum antibacterial agent” (PLoS ONE, 2017)
Read-outs that look alike come from different tables or passages of the source.

Experiments:
S. aureus Xen29 = test: Point of resistance assay (serial passage)
[1] = tested on: A. baumannii, E. coli, K. pneumoniae and P. aeruginosa; test: MIC with sub-inhibitory EDTA or polymyxin B, Gram-negative panel; assay type: cell-based
Procedure: (§1) MICs for NCL812 and its analogs (serial two-fold dilutions commencing at 128 μg/ml) were determined (in duplicate) in round bottom 96-well microtitre trays (Sarstedt 82.1582.001), using the broth micro-dilution method recommended by the Clinical and Laboratory Standards Institute (CLSI). […] MIC50, MIC90 and MIC range for NCL812, NCL195 and NCL219 were calculated against each S. pneumoniae, S. aureus or VRE isolate. To assess the potential activity of NCL195 against Gram-negative bacteria, MICs against Acinetobacter spp, E. coli, K. pneumoniae, P. aeruginosa, Proteus spp and Neisseria meningitidis were performed in the presence or absence of 0.08 mM-20 mM EDTA in a standard checkerboard assay.

A. calcoaceticus = test: MIC, broth micro-dilution; assay type: cell-based; details: 8 A. calcoaceticus isolates; absence of EDTA
Procedure: as §1

A. anitratus = test: MIC, broth micro-dilution; assay type: cell-based; details: Acinetobacter calcoaceticus; one A. anitratus isolate; absence of EDTA
Procedure: as §1

Neisseria meningitidis = test: Activity against Neisseria meningitidis; assay type: cell-based
Procedure: as §1

E. coli = test: MIC alone and checkerboard with EDTA or polymyxin B; assay type: cell-based; details: for MIC: Escherichia coli, read-out: MIC, agent alone
Procedure: as §1

P. aeruginosa = test: as above; assay type: cell-based; details: for MIC: Pseudomonas aeruginosa, read-out: MIC, agent alone
Procedure: as §1

A. baumannii = test: as above; assay type: cell-based; details: for MIC: Acinetobacter baumannii
Procedure: as §1

K. pneumoniae = test: as above; assay type: cell-based; details: for MIC of NCL195 in combination with EDTA: with EDTA 10 mM; for MIC: Klebsiella pneumoniae, read-out: MIC, agent alone
Procedure: as §1

mice = details: cited from earlier work
S. pneumoniae D39 = test: TEM morphometric analysis of cell membrane; assay type: cell-based, Streptococcus pneumoniae; details: 16 μg/ml, 6 h exposure
Procedure: Morphological appearance and morphometric analysis of the cell membrane of S. pneumoniae D39 after exposure to either 1 μg/ml, 4 μg/ml or 16 μg/ml of NCL812 was determined using TEM, as described in S1 File (Supplementary Methods). For S. aureus ATCC 29213, macromolecular (DNA, RNA, protein, cell wall, and lipid) synthesis inhibition studies were performed using concentrations of NCL812 that were equivalent to 0, 0.25, 0.5, 1, 2, 4 or 8-fold the MIC value (4 μg/ml), as detailed in S1 File (Supplementary Methods).
Effect of NCL812 on S. pneumoniae D39 cell membrane ultra-structure. Morphological appearance and morphometric analysis of the cell membrane of S. pneumoniae D39 after exposure to either 1 µg/ml, 4 µg/ml or 16 µg/ml of NCL812 was determined using TEM. […] Cultures were then exposed to either 1 µg/ml, 4 µg/ml or 16 µg/ml of NCL812 and harvested at 6 or 12 h by centrifugation at […] for 20 min and washed twice in 50 ml PBS. Critical time points for TEM work were determined by analyzing trends in the growth curves produced from the kill kinetics studies. Samples were resuspended in PBS containing 20% glycerol and stored at -80°C until required. […]
Samples were fixed using modified protocols defined by a previous study examining cell wall ultrastructure of S. pneumoniae. […] Images were obtained at 130000× magnification and analyzed using analySIS (Olympus Soft Imaging Systems).

CCCCCCCCCC(=O)N[C@@H](Cc1c[nH]c2ccccc12)C(=O)N[C@H](CC(N)=O)C(=O)N[C@@H](CC(=O)O)C(=O)N[C@@H]1C(=O)NCC(=O)N[C@@H](CCCN)C(=O)N[C@@H](CC(=O)O)C(=O)N[C@H](C)C(=O)N[C@@H](CC(=O)O)C(=O)NCC(=O)N[C@H](CO)C(=O)N[C@@H]([C@H](C)CC(=O)O)C(=O)N[C@@H](CC(=O)c2ccccc2N)C(=O)O[C@@H]1C [Daptomycin, daptomycin]
Resistance (fold MIC) over serial passage (S. aureus Xen29; by day 12 of the serial passage): 8 ×MIC | Day of serial passage by which resistance developed (S. aureus Xen29; daily serial passage): 5 days

Cc1ccc(/C=N/Nc2cc(N/N=C/c3ccc(C)cc3)nc(N)n2)cc1 [NCL195, 4,6-bis(2-((E)-4-methylbenzylidene)hydrazinyl)pyrimidin-2-amine]
MIC ([1]; in the presence of sub-inhibitory concentrations of EDTA): 0.25 to 8 µg/mL | MIC ([1]; in the presence of sub-inhibitory concentrations of polymyxin B): 0.25 to 1 µg/mL | MIC of colonies that grew after 72 h in the presence of NCL195 (S. aureus Xen29; 10^5 c.f.u. Xen29 in broth with 1×, 2× and 4× MIC): 1 × MIC | Resistance (fold MIC) over serial passage (S. aureus Xen29; 24 daily sequential cultures): ≤ 1 × MIC | MIC range (A. calcoaceticus): 4 to 32 µg/mL | MIC (A. anitratus): 4 µg/mL | Activity against Neisseria meningitidis (Neisseria meningitidis): bactericidal | MIC of NCL195 in combination with EDTA (E. coli; E. coli ATCC 11229, with EDTA 0.625 mM): 8 µg/mL | MIC of NCL195 in combination with polymyxin B (E. coli; E. coli ATCC 11229): 0.25 µg/mL | MIC of NCL195 in combination with EDTA (E. coli; E. coli ATCC 25922, with EDTA 2.5 mM): 4 µg/mL | MIC of NCL195 in combination with polymyxin B (E. coli; E. coli ATCC 25922): 0.25 µg/mL | MIC (E. coli; ATCC11229, E. coli ATCC 11229): > 128 µg/mL | MIC (E. coli; ATCC25922, E. coli ATCC 25922): > 128 µg/mL | MIC of NCL195 in combination with EDTA (P. aeruginosa; P. aeruginosa ATCC 27853, with EDTA 5 mM): 2 µg/mL | MIC of NCL195 in combination with polymyxin B (P. aeruginosa; P. aeruginosa ATCC 27853): 1 µg/mL | MIC of NCL195 in combination with EDTA (P. aeruginosa; P. aeruginosa PA01, with EDTA […]): 0.25 µg/mL | MIC of NCL195 in combination with polymyxin B (P. aeruginosa; P. aeruginosa PA01): 1 µg/mL | MIC (P. aeruginosa; ATCC27853, P. aeruginosa ATCC 27853): > 128 µg/mL | MIC (P. aeruginosa; P. aeruginosa PA01): > 128 µg/mL | MIC of NCL195 in combination with EDTA (A. baumannii; A. baumannii ATCC 12457, with EDTA 0.25 mM): 4 µg/mL | MIC of NCL195 in combination with polymyxin B (A. baumannii; A. baumannii ATCC 12457): 0.5 µg/mL | MIC of NCL195 in combination with EDTA (A. baumannii; A. baumannii ATCC 19606, with EDTA 0.5 mM): 2 µg/mL | MIC of NCL195 in combination with polymyxin B (A. baumannii; A. baumannii ATCC 19606): 0.5 µg/mL | MIC (A. baumannii; ATCC12457, A. baumannii ATCC 12457, read-out: MIC, agent alone): > 128 µg/mL | MIC (A. baumannii; ATCC19606, A. baumannii ATCC 19606, read-out: MIC, agent alone): > 128 µg/mL | MIC (A. baumannii; A. baumannii isolates without strain name (one table line per isolate), read-out: MIC): > 128 µg/mL | MIC of NCL195 in combination with EDTA (K. pneumoniae; K. pneumoniae ATCC 4352): 4 µg/mL | MIC of NCL195 in combination with polymyxin B (K. pneumoniae; K. pneumoniae ATCC 4352): 0.5 µg/mL | MIC of NCL195 in combination with EDTA (K. pneumoniae; K. pneumoniae ATCC 33495): 4 µg/mL | MIC of NCL195 in combination with polymyxin B (K. pneumoniae; K. pneumoniae ATCC 33495): 0.25 µg/mL | MIC (K. pneumoniae; ATCC4352, K. pneumoniae ATCC 4352): > 128 µg/mL | MIC (K. pneumoniae; ATCC33495, K. pneumoniae ATCC 33495): > 128 µg/mL

Cl.N=C(NN=Cc1ccc(Cl)cc1)NN=Cc1ccc(Cl)cc1 [NCL812, 2,2'-bis[(4-chlorophenyl)methylene] carbonimidic dihydrazide hydrochloride]
oral LD50 (mice): 150 mg/kg | Periplasmic space width (S. pneumoniae D39; untreated 3.91 ± 0.14 nm): 4.54 ±0.096 nm | Cell membrane thickness (S. pneumoniae D39; untreated 4.35 ± 0.24 nm): 6.43 ± 0.29 nm
